Test results as given in PubChem BioAssay (NCI).
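Exposure lasted 48 hours, with cells grown in 96-well plates and compounds tested at five concentrations. Abbreviation: GI50, concentration required for 50% inhibition of growth. TGI: concentration producing complete growth inhibition.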

Legend:
Assay in all cases: NCI-60 cell line screen, 48 h
[1] = system: NCI-H226 lung
[2] = system: NCI-H460 lung
[3] = system: NCI-H522 lung
[4] = system: NCI/ADR-RES ovarian
[5] = system: OVCAR-3 ovarian
[6] = system: OVCAR-4 ovarian
[7] = system: OVCAR-5 ovarian
[8] = system: OVCAR-8 ovarian
[9] = system: PC-3 prostate
[10] = system: RPMI-8226 leukemia
[11] = system: RXF 393 renal
[12] = system: SF-268 CNS
[13] = system: SF-295 CNS
[14] = system: SF-539 CNS
[15] = system: SK-MEL-2 melanoma
[16] = system: SK-MEL-28 melanoma
[17] = system: SK-MEL-5 melanoma
[18] = system: SK-OV-3 ovarian
[19] = system: SN12C renal
[20] = system: SNB-19 CNS
[21] = system: SNB-75 CNS
[22] = system: SR leukemia
[23] = system: SW-620 colon
[24] = system: T-47D breast
[25] = system: TK-10 renal
[26] = system: U251 CNS
[27] = system: UACC-257 melanoma
[28] = system: UACC-62 melanoma
[29] = system: UO-31 renal

CCNC(=O)N1CCc2cc(OC)c(OCCc3ccc(OC)nc3)cc2C1c1ccc(C)cc1C (configuration not stated)
TGI [1]: 11400 nM
GI50 [2]: 241 nM
TGI [2]: 6360 nM
GI50 [3]: 523 nM
TGI [3]: 2720 nM
GI50 [4]: 659 nM
TGI [4]: 38800 nM
GI50 [5]: 1340 nM
TGI [5]: 24300 nM
GI50 [6]: 3300 nM
TGI [6]: > 100000 nM
GI50 [7]: 2020 nM
TGI [7]: > 100000 nM
GI50 [8]: 675 nM
TGI [8]: > 43100 nM
GI50 [9]: 719 nM
TGI [9]: > 71800 nM
GI50 [10]: 531 nM
TGI [10]: 3580 nM
GI50 [11]: 1070 nM
TGI [11]: 15000 nM
GI50 [12]: 927 nM
TGI [12]: 50100 nM
GI50 [13]: 574 nM
TGI [13]: 8800 nM
GI50 [14]: 501 nM
TGI [14]: 5230 nM
GI50 [15]: 3330 nM
TGI [15]: 16400 nM
GI50 [16]: 873 nM
TGI [16]: 32100 nM
GI50 [17]: 839 nM
TGI [17]: 2710 nM
GI50 [18]: 2670 nM
TGI [18]: > 100000 nM
GI50 [19]: 1100 nM
TGI [19]: 15400 nM
GI50 [20]: 837 nM
TGI [20]: > 100000 nM
GI50 [21]: 667 nM
TGI [21]: > 23500 nM
GI50 [22]: 207 nM
TGI [22]: 2960 nM
GI50 [23]: 466 nM
TGI [23]: > 100000 nM
GI50 [24]: 2680 nM
TGI [24]: 64500 nM
GI50 [25]: 5000 nM
TGI [25]: > 100000 nM
GI50 [26]: 636 nM
TGI [26]: 17500 nM
GI50 [27]: 2290 nM
TGI [27]: 50500 nM
GI50 [28]: 430 nM
TGI [28]: 12200 nM
GI50 [29]: 929 nM
TGI [29]: > 100000 nM
